Active and inactive are the calls of the source.
Tests used:
[1] = molecular target: Glyceraldehyde-3-phosphate dehydrogenase (Homo sapiens, UniProt P04406)
[2] = viability of uninfected HEp-2 cells – cell-based, HTS, cytotoxicity control for RSV inhibitor project, dose response (AID 2410); assay type: functional; conditions: human respiratory syncytial virus
[3] = molecular target: T1, Bcl-2-related protein A1 (Mus musculus, UniProt Q07440); assay type: functional;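 note: confirmatory dose–response counterscreen on Bfl-1, used to check hits from a UBC13 polyubiquitin inhibitor campaign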
T1 sequence (Q07440 whole entry): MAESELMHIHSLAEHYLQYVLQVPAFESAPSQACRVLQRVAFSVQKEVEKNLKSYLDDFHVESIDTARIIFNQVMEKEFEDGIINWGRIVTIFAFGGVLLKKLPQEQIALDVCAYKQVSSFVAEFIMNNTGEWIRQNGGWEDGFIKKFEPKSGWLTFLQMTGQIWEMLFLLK

[4] = molecular target: T2, Ubiquitin-conjugating enzyme E2 N (Homo sapiens, UniProt P61088); assay type: functional
T2 sequence (P61088 whole entry): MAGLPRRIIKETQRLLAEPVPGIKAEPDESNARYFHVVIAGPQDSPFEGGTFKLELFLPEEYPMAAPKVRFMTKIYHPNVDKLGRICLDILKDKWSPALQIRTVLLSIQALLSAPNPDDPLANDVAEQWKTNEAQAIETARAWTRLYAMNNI

[5] = molecular target: T2, Ubiquitin-conjugating enzyme E2 N; assay type: functional; remark: listed apart in the source
[6] = system: Vero; assay: cells; assay type: functional, cell-based; conditions: Chlorocebus sabaeus
[7] = system: Vero; assay: cells; assay type: functional; conditions: Chlorocebus sabaeus
[8] = NIH-3T3 fibroblast cytotoxicity, dose response, cytotoxicity control, cell-based, fluorescence, Alamar Blue, secondary assay (AID 2327); assay type: functional;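 note: NIH-3T3 mouse fibroblasts cultured with fluconazole at 8 µg/mL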
[9] = fluconazole-exposed Candida albicans growth modulators – fluorescence, retest, confirmation (AID 2467); assay type: functional, cell-based
[10] = HEK-293T viability loss after treatment – luminescence, T-cell screen hits, cytotoxicity control for TCR NF-kB inhibitor project, dose response (AID 489026); assay type: functional, cell-based;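 note: cells exposed to compound about 14 hours before the viability readout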
[11] = system: INS1; assay: INS-1E survival protection against cytokine death – cell-based, luminescence, retest, dose response (AID 449756); assay type: functional; conditions: Rattus norvegicus;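 note: cell death triggered by IL-1 beta plus TNF-alpha plus IFN-gamma mixture; protective hits raise ATP signal compared with cytokine alone wells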
[12] = molecular target: T3, DNA repair protein RAD52 homolog (Homo sapiens, UniProt P43351); assay type: functional, biochemical
T3 sequence (P43351 whole entry): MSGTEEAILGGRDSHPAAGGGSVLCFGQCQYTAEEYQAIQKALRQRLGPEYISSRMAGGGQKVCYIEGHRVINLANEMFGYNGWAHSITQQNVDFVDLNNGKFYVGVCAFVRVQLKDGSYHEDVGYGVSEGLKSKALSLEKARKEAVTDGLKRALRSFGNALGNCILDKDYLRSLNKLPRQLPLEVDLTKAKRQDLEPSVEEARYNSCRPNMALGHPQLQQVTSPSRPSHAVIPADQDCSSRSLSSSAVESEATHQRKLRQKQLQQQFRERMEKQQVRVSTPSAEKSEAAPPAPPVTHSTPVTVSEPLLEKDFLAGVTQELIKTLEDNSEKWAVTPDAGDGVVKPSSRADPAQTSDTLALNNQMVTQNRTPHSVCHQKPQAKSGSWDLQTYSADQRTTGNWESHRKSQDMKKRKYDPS

[13] = system: HEK293; assay: EBV LMP1 TES2 canonical NF-kB signalling blockers – cell-based, HEK293, luciferase, cherry-pick, dose response (AID 588343); assay type: functional; conditions: Homo sapiens
[14] = molecular target: Glucose-6-phosphate 1-dehydrogenase (Homo sapiens, UniProt P11413); assay: inhibition of Homo sapiens G6PD, dose series – biochemical, fluorescence, selectivity assay for P. falciparum G6PD inhibitor project, dose response (AID 504792); assay type: functional
[15] = molecular target: Beta-galactosidase (Escherichia coli, UniProt Q8VNN2); assay: PubChem AID 485352; assay type: functional
[16] = molecular target: T4, Type-1 angiotensin II receptor (Homo sapiens, UniProt P30556); assay: antagonism of angiotensin II type 1 receptor – cell-based, uHTS hits, selectivity assay for APJ receptor antagonist project, dose response (AID 463214); assay type: functional;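 note: antagonist potency against angiotensin II stimulated AT1 response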
T4 sequence (P30556 whole entry): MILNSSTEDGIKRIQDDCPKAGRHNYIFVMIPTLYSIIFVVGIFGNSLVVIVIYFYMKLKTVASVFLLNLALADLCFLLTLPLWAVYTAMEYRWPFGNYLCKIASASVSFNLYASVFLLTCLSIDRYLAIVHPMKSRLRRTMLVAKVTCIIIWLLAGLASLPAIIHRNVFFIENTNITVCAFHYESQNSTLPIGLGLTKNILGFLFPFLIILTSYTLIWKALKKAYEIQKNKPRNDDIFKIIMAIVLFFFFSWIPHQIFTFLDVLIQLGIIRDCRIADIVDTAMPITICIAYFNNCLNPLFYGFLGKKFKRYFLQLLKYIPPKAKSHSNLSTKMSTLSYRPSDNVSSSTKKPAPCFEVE

[17] = system: HEK293; assay: inhibition of NOD1-driven NF-kB reporter – cell-based, luminescence, uHTS, primary screen (AID 1578); assay type: functional; conditions: Homo sapiens
[18] = system: HEK293; assay: cells; assay type: functional, cell-based; conditions: Homo sapiens
[19] = system: HEK293; assay: cells; assay type: functional, cell-based; conditions: Homo sapiens; remark: listed apart in the source
[20] = molecular target: Nucleotide-binding oligomerization domain-containing protein 2 (Homo sapiens, UniProt Q9HC29); assay: inhibition of NOD2-driven NF-kB reporter – cell-based, luminescence, uHTS, HEK293 (AID 1566); assay type: functional
[21] = system: HEK293; assay: NOD2 signaling inhibitors in MDP-stimulated cells, cell-based, uHTS, luminescence (AID 2001); assay type: functional; conditions: Homo sapiens
[22] = system: HEK293; assay: cells; assay type: functional, cell-based; conditions: Homo sapiens; remark: listed apart in the source
[23] = molecular target: T5, Microphthalmia-associated transcription factor (Homo sapiens, UniProt O75030); assay: reducers of TRPM1 reporter luminescence, concentration series – cell-based, SK-MEL-5, cherry-picked, set 3, MITF inhibitor project, dose response (AID 493073); assay type: functional;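 note: SK-MEL-5 melanoma cells with luciferase driven by the MITF target TRPM1 promoter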
T5 sequence (O75030 whole entry): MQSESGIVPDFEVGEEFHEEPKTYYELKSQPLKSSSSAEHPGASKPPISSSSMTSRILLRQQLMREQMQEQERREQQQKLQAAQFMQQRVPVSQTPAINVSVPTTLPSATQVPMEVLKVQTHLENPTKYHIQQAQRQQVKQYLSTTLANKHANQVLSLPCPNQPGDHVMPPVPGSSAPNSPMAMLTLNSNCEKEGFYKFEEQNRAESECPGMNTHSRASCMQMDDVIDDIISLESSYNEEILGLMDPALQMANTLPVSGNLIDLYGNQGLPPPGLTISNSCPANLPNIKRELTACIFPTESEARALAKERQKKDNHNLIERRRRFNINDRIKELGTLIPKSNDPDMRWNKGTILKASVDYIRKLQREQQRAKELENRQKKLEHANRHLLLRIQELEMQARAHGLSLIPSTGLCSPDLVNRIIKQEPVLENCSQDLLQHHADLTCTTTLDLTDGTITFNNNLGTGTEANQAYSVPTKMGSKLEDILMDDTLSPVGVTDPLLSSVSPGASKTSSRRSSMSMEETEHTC

[24] = molecular target: DNA dC->dU-editing enzyme APOBEC-3G (Homo sapiens, UniProt Q9HC16); assay: Dose Response confirmation of small molecule APOBEC3G DNA Deaminase Inhibitors via a fluorescence-based single-stranded DNA deaminase assay. [Related pubchem assays (depositor defined):AID493012, AID493028]; assay type: functional
[25] = molecular target: T6, Carboxy-terminal domain RNA polymerase II polypeptide A small phosphatase 1 (Homo sapiens, UniProt Q9GZU7); assay: CTDSP1 inhibitors, concentration-response, biochemical, absorbance readout, ultra-high-throughput screen actives (AID 540297); assay type: functional
T6 sequence (Q9GZU7 whole entry): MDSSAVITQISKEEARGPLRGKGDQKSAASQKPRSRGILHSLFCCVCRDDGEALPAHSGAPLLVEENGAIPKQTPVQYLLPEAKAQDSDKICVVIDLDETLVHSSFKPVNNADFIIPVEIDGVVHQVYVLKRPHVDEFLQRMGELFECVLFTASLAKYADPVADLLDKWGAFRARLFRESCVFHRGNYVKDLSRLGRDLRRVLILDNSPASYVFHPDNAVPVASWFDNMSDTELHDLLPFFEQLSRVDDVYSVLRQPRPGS

[26] = HPDE-C7 pancreatic duct cell viability loss – fluorescence, HTS (AID 430); assay type: functional, cell-based; conditions: Homo sapiens
[27] = viability loss of HPDE-C7K cells – cell-based, fluorescence, HTS, primary screen (AID 431); assay type: functional; conditions: Homo sapiens
[28] = reduction of Shn3 3'UTR-driven luciferase in osteoblasts – cell-based, Clone20 osteoblasts, firefly luciferase, cherry-picked, dose response (AID 624132); assay type: functional;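 note: firefly luciferase luminescence from reporter carrying the Shn3 3'UTR in osteoblasts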
[29] = loss of viability in HepG2 cells – cell-based, CellTiter-Glo, cherry-picked, cytotoxicity control for Shn3 inhibitor project, dose response (AID 624134); assay type: functional
[30] = non-specific 3'UTR reporter inhibition in Clone20-Shn3RL – cell-based, Renilla luciferase, cherry-picked, counter-screen for Shn3 inhibitor project, dose response (AID 624133); assay type: functional
[31] = molecular target: T7, Estrogen receptor (Homo sapiens, UniProt P03372);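 note: potency for inhibiting coactivator peptide recruitment to the receptor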
T7 sequence (P03372 whole entry): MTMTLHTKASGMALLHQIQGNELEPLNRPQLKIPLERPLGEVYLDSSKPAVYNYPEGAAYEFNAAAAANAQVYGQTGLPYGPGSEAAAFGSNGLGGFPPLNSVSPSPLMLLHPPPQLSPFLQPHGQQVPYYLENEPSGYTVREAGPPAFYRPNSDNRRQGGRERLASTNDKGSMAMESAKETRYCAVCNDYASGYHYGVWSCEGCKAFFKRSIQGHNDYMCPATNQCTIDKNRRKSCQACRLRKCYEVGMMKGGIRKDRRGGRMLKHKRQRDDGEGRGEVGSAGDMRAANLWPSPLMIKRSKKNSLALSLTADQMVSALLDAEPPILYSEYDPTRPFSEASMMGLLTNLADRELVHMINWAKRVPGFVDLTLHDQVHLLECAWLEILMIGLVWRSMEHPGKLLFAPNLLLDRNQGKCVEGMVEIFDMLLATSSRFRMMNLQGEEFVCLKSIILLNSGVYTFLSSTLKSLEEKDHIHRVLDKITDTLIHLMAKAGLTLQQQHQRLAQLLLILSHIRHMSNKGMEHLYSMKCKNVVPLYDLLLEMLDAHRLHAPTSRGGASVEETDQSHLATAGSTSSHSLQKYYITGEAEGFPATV

Glyceraldehyde-3-phosphate dehydrogenase, sequence (P04406 whole entry): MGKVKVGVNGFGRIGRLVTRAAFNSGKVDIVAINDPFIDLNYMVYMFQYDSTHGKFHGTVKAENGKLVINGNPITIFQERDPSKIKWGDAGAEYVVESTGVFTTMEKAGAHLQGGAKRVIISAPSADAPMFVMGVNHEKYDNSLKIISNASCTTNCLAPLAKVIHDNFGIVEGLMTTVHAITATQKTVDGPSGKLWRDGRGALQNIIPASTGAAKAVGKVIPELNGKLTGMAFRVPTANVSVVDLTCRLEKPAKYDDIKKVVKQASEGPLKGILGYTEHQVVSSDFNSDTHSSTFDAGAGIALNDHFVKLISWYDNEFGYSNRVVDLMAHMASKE
Glucose-6-phosphate 1-dehydrogenase, sequence (P11413 whole entry): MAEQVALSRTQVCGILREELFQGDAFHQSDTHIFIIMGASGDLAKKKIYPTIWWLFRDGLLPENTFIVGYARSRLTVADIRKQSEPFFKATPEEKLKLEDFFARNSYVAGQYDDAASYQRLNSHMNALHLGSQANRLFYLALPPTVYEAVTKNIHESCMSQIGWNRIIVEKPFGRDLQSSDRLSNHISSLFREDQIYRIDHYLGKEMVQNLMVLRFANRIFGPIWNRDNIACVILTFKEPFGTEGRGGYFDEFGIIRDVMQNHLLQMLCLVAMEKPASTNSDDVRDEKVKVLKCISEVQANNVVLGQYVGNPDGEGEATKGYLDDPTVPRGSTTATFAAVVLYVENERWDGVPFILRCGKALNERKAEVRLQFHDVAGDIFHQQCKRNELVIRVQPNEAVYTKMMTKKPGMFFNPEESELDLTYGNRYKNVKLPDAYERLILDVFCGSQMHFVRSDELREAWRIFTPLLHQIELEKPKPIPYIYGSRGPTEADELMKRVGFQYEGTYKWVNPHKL
Nucleotide-binding oligomerization domain-containing protein 2, sequence (Q9HC29 whole entry, the tested form may be a part): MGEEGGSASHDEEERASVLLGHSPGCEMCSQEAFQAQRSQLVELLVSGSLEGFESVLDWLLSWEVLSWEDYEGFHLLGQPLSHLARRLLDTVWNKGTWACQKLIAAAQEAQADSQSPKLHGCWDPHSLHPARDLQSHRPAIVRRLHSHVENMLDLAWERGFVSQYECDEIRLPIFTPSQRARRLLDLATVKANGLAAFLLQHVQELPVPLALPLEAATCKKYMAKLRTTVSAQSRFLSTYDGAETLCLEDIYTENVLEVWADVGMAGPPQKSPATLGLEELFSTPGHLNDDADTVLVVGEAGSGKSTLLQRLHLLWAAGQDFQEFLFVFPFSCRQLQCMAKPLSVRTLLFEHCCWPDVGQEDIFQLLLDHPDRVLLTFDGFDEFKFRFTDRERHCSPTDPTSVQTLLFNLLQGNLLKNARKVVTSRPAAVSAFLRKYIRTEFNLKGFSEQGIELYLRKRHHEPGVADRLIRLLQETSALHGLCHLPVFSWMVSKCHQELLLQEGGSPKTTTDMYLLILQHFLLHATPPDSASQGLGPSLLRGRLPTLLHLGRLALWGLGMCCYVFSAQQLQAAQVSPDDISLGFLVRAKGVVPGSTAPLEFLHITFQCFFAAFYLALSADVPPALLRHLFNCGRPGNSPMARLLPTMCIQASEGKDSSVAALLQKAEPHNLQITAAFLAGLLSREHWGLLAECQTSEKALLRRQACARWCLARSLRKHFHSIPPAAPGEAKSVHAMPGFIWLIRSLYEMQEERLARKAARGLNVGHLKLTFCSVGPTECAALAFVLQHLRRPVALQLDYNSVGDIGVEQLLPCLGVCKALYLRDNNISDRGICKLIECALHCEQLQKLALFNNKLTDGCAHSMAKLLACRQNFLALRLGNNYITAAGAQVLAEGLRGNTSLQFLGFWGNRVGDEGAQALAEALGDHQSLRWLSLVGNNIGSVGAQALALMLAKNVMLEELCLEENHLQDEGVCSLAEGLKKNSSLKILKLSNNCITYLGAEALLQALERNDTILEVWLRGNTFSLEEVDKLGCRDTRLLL
DNA dC->dU-editing enzyme APOBEC-3G, sequence (Q9HC16 whole entry, the tested form may be a part): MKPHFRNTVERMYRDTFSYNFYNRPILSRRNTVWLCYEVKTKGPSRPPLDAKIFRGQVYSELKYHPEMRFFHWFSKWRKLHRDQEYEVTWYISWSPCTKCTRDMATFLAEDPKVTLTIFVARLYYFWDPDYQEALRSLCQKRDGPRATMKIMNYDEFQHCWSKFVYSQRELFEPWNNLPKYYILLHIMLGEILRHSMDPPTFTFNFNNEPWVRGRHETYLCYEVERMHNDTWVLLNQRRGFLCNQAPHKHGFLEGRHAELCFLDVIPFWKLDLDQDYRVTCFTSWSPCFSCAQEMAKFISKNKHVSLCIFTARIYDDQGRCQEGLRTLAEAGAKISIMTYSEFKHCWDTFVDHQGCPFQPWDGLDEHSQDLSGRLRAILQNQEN
Beta-galactosidase, sequence (Q8VNN2 whole entry): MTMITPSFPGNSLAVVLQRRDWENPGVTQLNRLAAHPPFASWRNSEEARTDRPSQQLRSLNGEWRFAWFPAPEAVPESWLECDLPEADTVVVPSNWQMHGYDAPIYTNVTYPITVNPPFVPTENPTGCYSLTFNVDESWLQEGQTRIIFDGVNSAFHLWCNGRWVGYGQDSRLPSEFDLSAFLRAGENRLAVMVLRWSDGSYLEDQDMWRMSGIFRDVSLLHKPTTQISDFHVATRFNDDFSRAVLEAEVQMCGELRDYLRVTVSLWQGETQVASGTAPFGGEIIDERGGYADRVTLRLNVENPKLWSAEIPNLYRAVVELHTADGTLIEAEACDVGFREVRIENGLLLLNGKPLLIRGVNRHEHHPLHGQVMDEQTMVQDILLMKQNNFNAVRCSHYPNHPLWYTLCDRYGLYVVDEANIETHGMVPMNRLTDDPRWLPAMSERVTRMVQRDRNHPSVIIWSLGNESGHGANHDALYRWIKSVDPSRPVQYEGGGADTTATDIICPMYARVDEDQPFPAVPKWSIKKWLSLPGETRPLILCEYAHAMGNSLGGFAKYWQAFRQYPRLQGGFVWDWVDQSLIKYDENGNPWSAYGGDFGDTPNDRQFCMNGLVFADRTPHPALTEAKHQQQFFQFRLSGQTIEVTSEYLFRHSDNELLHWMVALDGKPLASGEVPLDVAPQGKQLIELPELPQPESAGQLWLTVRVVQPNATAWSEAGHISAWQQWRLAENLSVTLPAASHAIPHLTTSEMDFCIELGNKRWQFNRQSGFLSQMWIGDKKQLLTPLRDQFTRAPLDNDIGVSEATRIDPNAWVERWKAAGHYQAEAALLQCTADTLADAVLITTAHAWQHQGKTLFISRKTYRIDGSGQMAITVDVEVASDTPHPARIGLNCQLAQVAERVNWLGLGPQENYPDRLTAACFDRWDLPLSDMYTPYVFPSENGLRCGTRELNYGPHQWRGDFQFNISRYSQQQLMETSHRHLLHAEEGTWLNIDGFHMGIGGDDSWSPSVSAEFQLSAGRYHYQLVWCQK

## Cc1cccc(N2C(=O)C(Cl)=C(N3CCN[C@H](C)C3)C2=O)c1
[1]
  IC50: > 50 µM (inconclusive)

## CCc1ccc2nc(N(CCCN(C)C)C(=O)c3ccc(C(=O)c4ccccc4)cc3)sc2c1
[2]
  CC50: 20.5 µM (active)
[3]
  IC50: > 20 µM (inactive)
[4]
  IC50: 13.2 µM (active)
[5]
  IC50: 11.6 µM (active)

## O=C(CNC(=O)c1cccc(S(=O)(=O)N2CCc3ccccc32)c1)Nc1ccccc1Br
[6]
  IC50: 16.9 µM (active)
[7]
  CC50: > 25 µM (active)

## CCCCCc1ccc(OCCCC[n+]2ccc(C)cc2)c(CCCCC)c1
[8]
  EC50: > 160 µM (inactive)
[9]
  EC50: 0.516 µM (active)
[10]
  IC50: 58 µM (inactive)
[11]
  AC50: 1.92 µM (active)
[12]
  AC50: 21.7 µM (active)

## Cc1ccc(C(=O)Nc2nnc(SCC(=O)N3CCCc4ccccc43)s2)cc1
[13]
  AC50: 1.3 µM (active)

## C[C@H](CO)N1C[C@H](C)[C@@H](CN(C)C(=O)Nc2ccc(C(F)(F)F)cc2)Oc2c(cccc2N(C)C)C1=O
[14]
  IC50: > 80 µM (inactive)

## Cc1cc(C)nc(NNS(=O)(=O)c2c(F)cc(F)cc2Br)n1
[15]
  EC50: > 40 µM (inactive)
[16]
  IC50: 22.7 µM (not active)

## O=C(CCl)N1c2ccccc2SCC1c1ccccc1 (centres undefined)
[8]
  EC50: 7.57 µM (inconclusive)
[17]
  EC50: 11.5 µM (active)
[18]
  IC50: 5.49 µM (active)
[9]
  EC50: > 38 µM (not active)
[19]
  IC50: > 20 µM (inactive)
[20]
  EC50: > 20 µM (inactive)
[21]
  IC50: 8.37 µM (active)
[22]
  IC50: > 20 µM (inactive)
[23]
  AC50: 4.2 µM (active)

## COc1cc(N)c2ncsc2c1
[14]
  IC50: > 80 µM (inactive)

## O=C(Nc1cc(S(=O)(=O)Nc2ccc(Cl)cc2)ccc1O)c1ccc(S(=O)(=O)N2CCCCCC2)cc1
[24]
  IC50: 73.7 µM (active)
[25]
  IC50: 2.73 µM (active)

## Fc1ccc2[nH]c3c(N4CCSCC4)ncnc3c2c1
[26]
  EC50: 13.4 µM (active)
[27]
  EC50: 13.3 µM (active)
[13]
  AC50: 1.5 µM (active)
[28]
  AC50: 2.76 µM (active)
[29]
  AC50: 30 µM (active)
[30]
  AC50: 2.6 µM (active)

## Cn1c(SCc2cc(=O)n3cc(Br)ccc3n2)nnc1C1COc2ccccc2O1 (centres undefined)
[31]
  IC50: 25.2 µM (active)
[25]
  IC50: 17.8 µM (active)

## COc1ccc(C(=O)NC(=C(Cl)Cl)S(=O)(=O)c2ccc(C)cc2)cc1
[17]
  EC50: 12.3 µM (active)
[18]
  IC50: 8.07 µM (active)
[19]
  IC50: > 20 µM (inactive)
[20]
  EC50: > 20 µM (inactive)
[21]
  IC50: 8.96 µM (active)
[22]
  IC50: > 20 µM (inactive)

## COc1cc(C(=O)OCCc2cc3ccccc3c(=O)o2)cc(OC)c1OC
[10]
  IC50: 69.5 µM (inactive)

## COc1cc(/C=C2/SC(=S)NC2=O)cc(Cl)c1OCc1cccc2ccccc12
[1]
  IC50: > 100 µM (not active)

Source: ChEMBL document CHEMBL1201862, “PubChem BioAssay data set” (2004)
